Test results taken from US20070010529A1, “Nitrogenous heterocyclic compounds and medical use thereof” (priority 2003, published 2007).

Experiments:
[1] = biological target: recombinant human p38 αMAP kinase (Homo sapiens, UniProt Q16539); experiment: Study on p38 αMAP kinase inhibitory activity (ATF-2 phosphorylation, Alpha Screen); assay type: biochemical; conditions: phosphorylation of biotinylated ATF2 by recombinant human p38 αMAP kinase, 30° C. for 30 minutes
Method: (1) Study on p38 αMAP Kinase Inhibitory Activity
Using activation transcription factor 2 (hereinafter abbreviated as ATF-2) which is a substrate for p38 αMAP kinase, the inhibitory action of the compounds of the present invention was investigated on the phosphorylation by a recombinant human p38 αMAP kinase.
A kinase buffer (25 mM Tris-HCl (pH 7.5), 5 mM β-glycerophosphate, 2 mM dithiothreitol, 0.1 mM Na3VO4, 10 mM MgCl2) containing a recombinant human p38 αMAP kinase was added to a 384-well plate (5 μL)(6.25 μg protein/well) for fluorescence measurement. After addition of a kinase buffer (5 μL) containing the compound of the present invention, the resulting mixture was incubated at room temperature for 20 minutes. A substrate mixture (5 μL) of biotinylated ATF2 of 5 μg/mL (Upstate Biotechnology #14-432), adenosine triphosphate (90 μmol/L)(Sigma #FL-AAS) and anti-phosphorylated ATF2 antibody (20-fold dilution)(Cell Signaling Technology #9221L) prepared separately was added thereto, and enzyme reaction was carried out at 30° C. for 30 minutes. After the reaction, Herpes buffer (5 μL) containing 0.25% BSA and 100 mM EDTA was added to stop the enzyme reaction. The amount of a complex of the phosphorylated ATF2 and anti-phosphorylated ATF2 antibody produced by the reaction was measured using an Alpha Screen™ Rabbit Detection kit (Packard #6760607).
The p38 αMAP kinase inhibitory activity, which is the effect of the compound of the present invention, was calculated as an inhibition rate (%) according to the following equation: Inhibition rate (%)={(AC minus AX)/(AC minus AB)}×100 wherein AB is a measured value without addition of the enzyme; AC is a measured value with addition of the enzyme in the absence of a test compound; and AX is a measured value with addition of the enzyme in the presence of a test compound.
Inhibition rate of compounds with each concentration was calculated, and a value indicating 50% inhibition (IC50) was determined from the inhibition curve.

[2] = system: TNF-α production in THP-1 (human monocyte cell line); experiment: Inhibitory activity against TNF-α production using human cell lines (LPS-stimulated THP-1); assay type: cell-based; conditions: 1.5 h, THP-1 cells stimulated by LPS, cultured for 90 minutes, TNF-α by ELISA
Method: (2) Inhibitory Activity Against TNF-α Production Using Human Cell Lines
Using THP-1 which is a human monocyte cell line, the inhibitory effect of the compound of the present invention against TNF-α production stimulated by lipopolysaccharide (LPS) was studied.
Each 50 μL of lipopolysaccharide (LPS; Difco #3120-25-0) prepared to a concentration of 40 ng/mL using RPMI-1640 medium containing 10% fetal calf serum (hereinafter abbreviated as RPMI-1640) and RPMI-1640 containing the compound of the present invention was added to a 96-well plate for cell culture. One hundred μL of the cell suspension of THP-1 (Dainippon Pharmaceutical Co., Ltd, #06-202) prepared to a cell density of 2×10^6 cells/mL using RPMI-1640 was added and cultured for 90 minutes at 37° C. in an incubator (5% CO2, 95% air). After completion of the reaction, the culture medium supernatant was recovered and the amount of produced TNF-α was measured using an ELISA kit (Invitrogen, #850090192).
The inhibitory activity against TNF-α production, which is the effect of the compound of the present invention, was calculated as an inhibition rate (%) by the following equation: Inhibition rate (%)={(AC minus AX)/(AC minus AB)}×100 wherein AB is a measured value without LPS induction; AC is a measured value with LPS induction in the absence of a test compound; and AX is a measured value with LPS induction in the presence of a test compound. Inhibition rate of compounds with each concentration was calculated, and a value indicating 50% inhibition (IC50) was determined from the inhibition curve.

[3] = system: Human CYP3A4; experiment: Evaluation of human CYP3A4 induction activity (HepG2 cells, hPXR/CYP3A4 luciferase reporter); assay type: in vitro ADME; conditions: concentration of 10 μM, rifampicin (10 μmol/L) set to 100%
Method: (4) Evaluation of Human CYP3A4 Induction Activity
HepG2 cells were cultured in a 5% CO2 incubator at 37° C., using a medium [MEM(+)] prepared by adding 1/100-fold amount of non-essential amino acids for MEM Eagle's medium (100×, ICN, #1681049), Antibiotic-Antimycotic (100×, Gibco, #15240-096), L-glutamine 200 mM (100×, Gibco, #25030-081) and 1/10-fold amount of fetal bovine serum (Sigma, #F9423) to a minimum essential medium Eagle (Mod.) with Earle's salts without L-glutamine. The medium was exchanged once every 2 to 3 days. About one-fifth of the cells which were cultured to a confluent state were passaged once a week. HepG2 cells which were cultured to almost confluent state in a 225 cm^2 culture flask were inoculated to a 24-well plate (Iwaki, #3820-024) to a concentration of 5×10^4 cells/MEM(+) of 500 μL/well. […] Twenty μL/well of the prepared cell lysis solution was transferred to a 96-well white plate (Perkin Elmer, #23300), and using a luminometer (Berthold Japan, Microlumat LB96P), each chemical luminescence was measured for 2 to 14 seconds after addition of luciferase assay reagent II [(LARII), 100 μL/well)] and for 2 to 14 seconds after addition of Stop & Glo reagent, 100 μL/well). […]
The CYP3A4 induction activity was calculated by setting a rise in transcription activity of CYP3A4 to 100% when using rifampicin (10 μmol/L) as a positive control drug.

[4] = biological target: Human CYP2C9 (Homo sapiens, UniProt P11712); experiment: Evaluation of human CYP2C9 inhibitory activity; assay type: in vitro ADME
Method: (5) Evaluation of Human CYP2C9 Inhibitory Activity
The CYP2C9 inhibitory activity of the compound of the present invention was evaluated by enhancing measurement precision and improving measurement sensitivity on the basis of Sato et. al method [Pharmacokinetics, Xenobio. Metabol. and Dispos., 16(2), 115-126 (2001)].

[5] = system: TNF-α production induced by lipopolysaccharide (LPS); experiment: Rat cytokine-production model (LPS-induced TNF-α production in vivo); conditions: dose of 10 mg/kg orally; LPS 10 μg/kg intravenously after 2.0 hours; plasma ninety minutes after LPS
Method: (3) Rat Cytokine-Production Model
The in vivo effect of the compound of the present invention was studied on TNF-α production induced by lipopolysaccharide (LPS) in rats.
A medium containing the compound of the present invention was orally administered to male […] (Charles River Japan, Inc.), and after 2.0 hours, lipopolysaccharide (LPS, 055:B5, Difco) was intravenously administered at the dose of 10 μg/kg (5 animals/group). Only a medium was orally administered to a control group (5 animals). Ninety minutes after the LPS treatment, heparinized blood collection was performed via the abdominal cava vein under anesthesia with ether, and blood plasma was obtained by centrifugation (12,000 rpm, 3 minutes, 4° C.). The obtained blood plasma sample was stored at −80° C. until it was used. TNF-α in the blood plasma was measured using an ELISA kit from Genzyme/Techne (#10516).
The inhibitory activity of the compound of the present invention against TNF-α production was calculated as an inhibition rate (%) according to the following equation: Inhibition rate (%)={(AC minus AX)/AC}×100 wherein AC is a measured value in case where no test compound was administered under LPS induction, and AX is a measured value in case where a test compound was administered under LPS induction.

Sequence of recombinant human p38 αMAP kinase (Q16539 whole entry): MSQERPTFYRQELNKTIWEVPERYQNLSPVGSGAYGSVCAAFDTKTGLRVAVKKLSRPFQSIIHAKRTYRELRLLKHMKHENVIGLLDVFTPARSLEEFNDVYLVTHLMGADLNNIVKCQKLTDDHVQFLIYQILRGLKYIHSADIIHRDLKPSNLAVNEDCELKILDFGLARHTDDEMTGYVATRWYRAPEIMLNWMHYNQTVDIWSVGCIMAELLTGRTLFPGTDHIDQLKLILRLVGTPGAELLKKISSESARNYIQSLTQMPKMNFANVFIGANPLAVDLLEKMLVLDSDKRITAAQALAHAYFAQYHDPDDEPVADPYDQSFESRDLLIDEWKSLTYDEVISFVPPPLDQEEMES
Sequence of Human CYP2C9 (P11712 whole entry): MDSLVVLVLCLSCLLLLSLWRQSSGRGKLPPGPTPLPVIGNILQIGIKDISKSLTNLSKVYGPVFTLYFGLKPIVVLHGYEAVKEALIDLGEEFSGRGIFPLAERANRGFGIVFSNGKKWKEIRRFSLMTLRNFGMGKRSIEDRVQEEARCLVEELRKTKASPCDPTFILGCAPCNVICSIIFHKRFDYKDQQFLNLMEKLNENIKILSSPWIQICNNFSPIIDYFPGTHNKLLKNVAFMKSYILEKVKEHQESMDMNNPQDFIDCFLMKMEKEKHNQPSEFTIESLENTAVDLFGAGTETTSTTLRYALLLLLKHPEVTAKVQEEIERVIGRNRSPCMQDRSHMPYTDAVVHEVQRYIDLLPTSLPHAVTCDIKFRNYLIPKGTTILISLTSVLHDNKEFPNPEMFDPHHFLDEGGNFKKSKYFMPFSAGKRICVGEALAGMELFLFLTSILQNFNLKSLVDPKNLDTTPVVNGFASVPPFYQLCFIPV

Compound | IC50 [1] [nM] | IC50 [2] [nM] | CYP3A4 induction activity [3] | IC50 [4] [nM] | inhibition against in vivo TNF-α production induced by LPS stimulation [5] [%]
Cc1ccc(-n2nc(C(C)(C)C)cc2NC(=O)Nc2ccc(OC3CCN(C(=O)c4ccc(CN5CCN(C)CC5)cc4)CC3)cc2C)cc1 [Example 17, N-[3-t-butyl-1-(4-methylphenyl)-1H-pyrazol-5-yl]-N′-{2-methyl-4-[(1-{4-[(4-methylpiperazin-1-yl)methyl]benzoyl}piperidin-4-yl)oxy]phenyl}urea] | 3.8 | 17 |  |  | 
Cc1ccc(-n2nc(C(C)(C)C)cc2NC(=O)Nc2ccc(CN3CCN(C(=O)c4ccc(CN5CCN(C)CC5)cc4)CC3)cc2C)cc1 [Example 13(1), N-[3-t-butyl-1-(4-methylphenyl)-1H-pyrazol-5-yl]-N′-{2-methyl-4-[(4-{4-[(4-methylpiperazin-1-yl)methyl]benzoyl}piperazin-1-yl)methyl]phenyl}urea] | 5.6 | 35 | did not show CYP3A4 induction activity at all | 21000 | 
Cc1ccc(-n2nc(C(C)(C)C)cc2NC(=O)Nc2cc(CN3CCN(C(=O)c4ccc(CN5CCN(C)CC5)cc4)CC3)ccc2Cl)cc1 [13(2), N-[3-t-butyl-1-(4-methylphenyl)-1H-pyrazol-5-yl]-N′-{2-chloro-5-[(4-{4-[(4-methylpiperazin-1-yl)methyl]benzoyl}piperazin-1-yl)methyl]phenyl}urea] | 2.5 | 21 |  |  | 
Cc1ccc(-n2nc(C(C)(C)C)cc2NC(=O)Nc2ccc(CN3CCC(=O)N(c4ccccc4C)C3)cc2)cc1 [Example 4(1), N-[3-t-butyl-1-(4-methylphenyl)-1H-pyrazol-5-yl]-N′-(4-{[3-(2-methylphenyl)-4-oxotetrahydropyrimidin-1(2H)-yl]methyl}phenyl)urea] | 2.9 | 2.3 |  |  | 72.8
